Source: article PMC6155340, “Isolation and Structure Identification of Novel Brominated Diketopiperazines from Nocardia ignorata—A Lichen-Associated Actinobacterium” (Molecules : A Journal of Synthetic Chemistry and Natural …, 2017)
Converted amounts (≈) assume the structure as drawn. Non-standard residues stand in square brackets, D forms with d. Residues, ends and D or L forms follow the SMILES beside them. *: point of attachment. Tyr(3-Br) = N[C@@H](Cc1ccc(O)c(Br)c1)C(=O)O; Boc = CC(C)(C)OC(=O)*

How the values were obtained:
[1] = Cytotoxic activity, standard tetrazolium (MTT) assay on HaCaT cells; type: cell-based; settings: human, HaCaT keratinocyte cells, 24 h incubation with compound, 1-200 µg/mL
Method: (§1) Cytotoxic properties of pure compounds were determined with a standard tetrazolium assay. B16 (6000 cells/well) and HaCaT (10,000 cells/well) cells were seeded in RPMI 1640 medium with 5% fetal calf serum (FCS) and antibiotic at day 0 in well-plate. Incubation was performed at 37 °C in an atmosphere of 5% CO2. After 24 h of incubation, compounds were added at different concentrations (1, 10, 50, 100, and 200 µg/mL), and the plate was incubated 24 h more (37 °C, 5% CO2). Cell growth and viability were then measured at 540 nm, using a MTT (3-[4,5-dimethylthiazol-2-yl]-2,5-diphenyltetrazolium bromide) assay. Each experiment was repeated at least three times.

[2] = Cytotoxic activity, standard tetrazolium (MTT) assay on B16 cells; type: cell-based, murine; settings: mouse, B16 melanoma cells, 24 h incubation with compound, 1-200 µg/mL
Method: as §1

| Structure (SMILES) | IC50 at 24 h [1] | IC50 at 24 h [2] |
| --- | --- | --- |
| C[S+]([O-])CC[C@@H]1NC(=O)[C@@H]2CCCN2C1=O (stereo partly drawn) [Compound 1, cyclo (L-Pro-L-OMet)] | > 200 µg/mL | > 200 µg/mL |
| O=C1N[C@@H](Cc2ccc(O)cc2)C(=O)N2CCC[C@@H]12 [Compound 2, cyclo (L-Pro-L-Tyr)] | > 200 µg/mL | > 200 µg/mL |
| O=C1N[C@@H](Cc2ccc(O)cc2)C(=O)N2CCC[C@H]12 [Compound 3, cyclo (D-Pro-L-Tyr)] | > 200 µg/mL | > 200 µg/mL |
| CC(C)[C@@H]1NC(=O)[C@@H]2CCCN2C1=O [Compound 4, cyclo (L-Pro-L-Val)] | > 200 µg/mL | > 200 µg/mL |
| CC(C)C[C@@H]1NC(=O)[C@@H]2CCCN2C1=O [Compound 5, cyclo (L-Pro-L-Leu)] | > 200 µg/mL | > 200 µg/mL |
| O=C1N[C@@H](Cc2ccc(O)c(Br)c2)C(=O)N2CCC[C@H]12 [Compound 6, cyclo (D-Pro-L-Br-Tyr)] | > 200 µg/mL | > 200 µg/mL |
| O=C1N[C@@H](Cc2ccc(O)c(Br)c2)C(=O)N2CCC[C@@H]12 [Compound 7, cyclo (L-Pro-L-Br-Tyr)] | > 200 µg/mL | > 200 µg/mL |
| O=Cc1c[nH]c2ccccc12 [Compound 8, indole-carboxaldehyde] | 79 ± 6 µg/mL (≈ 544 µM) | 72 ± 6 µg/mL (≈ 496 µM) |
| COC(=O)[C@H]1CCCN1C(=O)[C@H](Cc1ccc(O)c(Br)c1)NC(=O)OC(C)(C)C [Compound 13a, Methyl ((S)-3-(3-bromo-4-hydroxyphenyl)-2-((tert-butoxycarbonyl)amino)propanoyl)-D-prolinate] (Boc-[Tyr(3-Br)]-[dP]-OMe) | > 200 µg/mL | > 200 µg/mL |
| COC(=O)[C@@H]1CCCN1C(=O)[C@H](Cc1ccc(O)c(Br)c1)NC(=O)OC(C)(C)C [Compound 13b, Methyl ((S)-3-(3-bromo-4-hydroxyphenyl)-2-((tert-butoxycarbonyl)amino)propanoyl)-L-prolinate] (Boc-[Tyr(3-Br)]-Pro-OMe) | 7 ± 2.5 µg/mL (≈ 14.9 µM) | 18 ± 5 µg/mL (≈ 38.2 µM) |
